Measured values published in EP3373009A1, “FLUORESCENT COMPOUNDS FOR THE DETECTION OF MALIGNANT MELANOMA” (Karlsruher Institut für Technologie, priority 2017, dated 2018).

Key:
[1] = test system: human melanoma cells SK-Mel28; experiment: Cellular uptake of fluorescent compounds by CLSM with fluorescence quantification (Example 2, Fig. 3); type: cell-based; conditions: 20 µM in DMF, 5 hrs; for fluorescence signal: excitation 488 nm, background subtracted; for difference in the uptake between SK-Mel28 and HeLa cells: SK-Mel28 versus HeLa (negative control)
Procedure: The cellular uptake of the fluorescent compounds according to the present invention was studied by treatment of human melanoma cells SK-Mel28 and HeLa cells (human cervix carcinoma cell line as a negative control, common model cell line) and their investigation via CLSM (confocal laser scanning microscopy).
(§1) The aforementioned cells were seeded in an ibidi® µ-slide 8 well in a density of 2x10^5/mL and cultured for two days to confluency, before being treated with the fluorescent compounds in a concentration of 20 µM in DMF (dimethylformamide). After an incubation time of 5 hrs, the adherent cell layers were washed three times with PBS (phosphate buffered saline) and the nuclei were stained with Hoechst 33342 (Invitrogen, 0.5 µg/mL, 20 min). During the microscopic studies (Leica TCS-SP-5, inverted microscope), the fluorescent compounds were excited using an Ar-laser at 488 nm. Excitation of the Hoechst dye was accomplished with an UV-Laser at 351 and 364 nm. Due to the overlap of the emission spectra of both dyes, a sequential mode was chosen for recording the cell images.
The resulting cell images were analyzed in terms of fluorescence quantification at 488 nm excitation using the software imaged 1.50i (Wayne Rasband, National Institutes of Health, USA).
From each cell image, five cells were selected as regions of interest and the related fluorescence signals were quantified (mean value and standard deviation). Additionally, three cell-free regions were selected in each cell image as background and the resulting background signal from these regions was subtracted from the cell signal.

[2] = test system: MEB4 cells; experiment: Cellular uptake of the MSF in 2D cell culture, evaluated by CLSM (Example 1); type: cell-based, murine; conditions: 20 µM in DMF, 5 hrs
Procedure: (§2) Two-dimensional cell cultures were treated with the fluorescent compound (I-1) as the MSF, represented by the following formula: [drawing 22]
(§3) Diverse cell lines as well as primary skin cells such as U2OS, SHSY, A459, H4, Hek293, HepG2, HCT116, U251, MCF-7, Ratfib, HUVEC, Fibroblasts, and HeLa were treated with the MSF at a concentration of 20 µM in DMF (dimethylformamide) for 5 hrs and subsequently evaluated by means of CLSM (confocal laser scanning microscopy).
(§4) In addition, murine (MEB4) as well as human (SK-Mel28) malignant melanoma cells were treated with the MSF under the same conditions.
(§5) The experimental procedure was similar to that of Example 2, as described below.
as §1, with “Due to the overlap of the emission spectra of both dyes, a sequential mode was chosen for recording the cell images.” left out

[3] = test system: HeLa cells; experiment: Cellular uptake of the MSF in 2D cell culture, evaluated by CLSM (Example 1), non-affected control cells; type: cell-based, human; conditions: 20 µM in DMF, 5 hrs
Procedure: as §2, §3, §4, §5
as §1, with “Due to the overlap of the emission spectra of both dyes, a sequential mode was chosen for recording the cell images.” left out

Compound	fluorescence signal [1]	difference in the uptake between SK-Mel28 and HeLa cells [1]	fluorescence generated by the MSF in CLSM images ([2]; MEB4 cells, Fig. 2)	uptake by the cells ([2]; MEB4 malignant melanoma cells)	fluorescence originating from the MSF in CLSM images ([3]; HeLa cells, Fig. 1)	uptake by the cells ([3]; HeLa non-affected cells)
O=C(c1ccc(OC2C#CCCCCC2)cc1)N1CCN(C(=O)c2ccccc2-c2c3ccc(=O)cc-3oc3cc(O)ccc23)CC1 (stereo not shown) [I-14]	slightly weaker fluorescence signals	significant differences in the uptake	–	–	–	–
O=C(OCC1CSCC#CCO1)N1CCN(C(=O)c2ccccc2-c2c3ccc(=O)cc-3oc3cc(O)ccc23)CC1 (stereo not shown) [I-17]	slightly weaker fluorescence signals	significant differences in the uptake	–	–	–	–
O=C(NCCCCNC(=O)C1(F)C#CCCCCC1)c1ccc(-c2c3ccc(=O)cc-3oc3cc(O)ccc23)c(C(=O)O)c1 (stereo not shown) [I-25]	slightly weaker fluorescence signals	significant differences in the uptake	–	–	–	–
O=C(c1ccc2[nH]ccc2c1)N1CCN(C(=O)c2ccccc2-c2c3ccc(=O)cc-3oc3cc(O)ccc23)CC1 [I-20]	slightly weaker fluorescence signals	significant differences in the uptake	–	–	–	–
O=C(c1ccccc1-c1c2ccc(=O)cc-2oc2cc(O)ccc12)N1CCN(C(=O)C23CC4CC(CC(C4)C2)C3)CC1 [I-18]	slightly weaker fluorescence signals	significant differences in the uptake	–	–	–	–
O=C(c1ccccc1-c1c2ccc(=O)cc-2oc2cc(O)ccc12)N1CCN(C(=O)C2(F)C#CCCCCC2)CC1 (stereo not shown) [I-1]	high fluorescence signal	large difference in the uptake	can be recognized throughout the cytoplasm	effectively been taken up	no fluorescence apparent	not significantly been taken up
